The record followed here is patent publication US20070026079A1, “Intranasal administration of modulators of hypothalamic ATP-sensitive potassium channels” (priority 2005, published 2007).

Assay [1] concerns hypothalamic KATP channels. Description: Central insulin or diazoxide in rats on a high fat diet for three days (hepatic insulin resistance). It counts as in vivo. The settings on record: basal plasma insulin (20 μU/ml). Here is the method: Additional-experiments were also performed in rats maintained on a high fat diet regimen for three days.
Assay [2] deals with KATP channels within the medial hypothalamus. Description: Intrahypothalamic (IH) infusion of diazoxide or insulin with pancreatic-insulin clamp in rats. It counts as in vivo, Sprague-Dawley rats. The settings on record: for rate of glucose infusion required to prevent hypoglycemia: IH infusion during pancreatic clamp, vs vehicle; for blood glucose levels / glucose production (GP): IH infusion; for blood glucose levels: bilateral, medial hypothalamus, fifteen-fold lower dose than ICV; for glucose production (GP): basal circulating insulin. From the text: Animal preparation for the in vivo experiments. Rats. Eighty-nine 10-week-old male Sprague-Dawley rats (Charles River Breeding Laboratories, Wilmington, Mass.) were studied. Rats were housed in individual cages and subjected to a standard light-dark cycle. Three weeks prior to the in vivo studies, chronic catheters were implanted in the third cerebral ventricle (Obici et al., 2003; Liu et al., 1998) or intrahypothalamically (Morton et al., 2003) (IH) by stereotaxic surgery. One week before the pancreatic-insulin clamp protocols, rats received additional catheters in the right internal jugular and left carotid artery (FIG. 5) (Obici et al., 2003; Liu et al., 1998). In vivo studies. For the studies in rats, the metabolic experiments were performed ˜3 weeks after stereotaxic surgery following complete recovery from the operation (FIG. 5). All solutions were diluted with artificial cerebral spinal fluid (aCSF). […] Pancreatic-insulin clamp studies were performed as previously described (Liu et al., 1998). Euglycemic-hyperinsulinemic clamps in conscious, unrestrained, catheterized […] were performed for 90 min as previously described (Obici et al., 2003; Liu et al., 1998).

Assay [3] deals with G6 Pase. Description: Hepatic expression of G6 Pase by real-time PCR after central infusions. It counts as in vivo, Sprague-Dawley rats. From the text: (§1) Gene expression. Gluconeogenic enzymes. Quantitative analysis of gene expression was done using RT-PCR. Total RNA was isolated with Trizol (Invitrogen) and single-strand cDNA was synthesized with a kit provided by Invitrogen. Real-time PCR reactions and the primers for G6 Pase and PEPCK were done as described (Pocai et al., in press). The copy number of each transcript was derived from a standard curve of cloned target templates. Expression of each transcript was normalized to copy number for 18s ribosomal protein.

The test system of assay [4] is central KATP channels. Description: ICV infusion of diazoxide with pancreatic-insulin clamp (1 mU/kg.min) in conscious rats. It counts as in vivo, Sprague-Dawley rats. From the text:
Animal preparation for the in vivo experiments. Rats. Eighty-nine 10-week-old male Sprague-Dawley rats (Charles River Breeding Laboratories, Wilmington, Mass.) were studied. Rats were housed in individual cages and subjected to a standard light-dark cycle. Three weeks prior to the in vivo studies, chronic catheters were implanted in the third cerebral ventricle (Obici et al., 2003; Liu et al., 1998) or intrahypothalamically (Morton et al., 2003) (IH) by stereotaxic surgery. One week before the pancreatic-insulin clamp protocols, rats received additional catheters in the right internal jugular and left carotid artery (FIG. 5) (Obici et al., 2003; Liu et al., 1998).
(§2) In vivo studies. For the studies in rats, the metabolic experiments were performed ˜3 weeks after stereotaxic surgery following complete recovery from the operation (FIG. 5). All solutions were diluted with artificial cerebral spinal fluid (aCSF). […] Pancreatic-insulin clamp studies were performed as previously described (Liu et al., 1998). Euglycemic-hyperinsulinemic clamps in conscious, unrestrained, catheterized mice were performed for 90 min as previously described (Obici et al., 2003; Liu et al., 1998).
(§3) Hepatic alucose fluxes. Rate of hepatic glucose fluxes was determined as described. Barzilai et al., 1997).

For assay [5], the system named is PEPCK. Description: Hepatic expression of PEPCK by real-time PCR after central infusions. Type of assay: in vivo, Sprague-Dawley rats.
Text: as §1

The subject of assay [6] is hypothalamic KATP channels. Description: ICV infusion of insulin, KATP channel blocker (glibenclamide) or both with pancreatic-insulin clamp (1 mU/kg.min) in rats. Type of assay: in vivo, Sprague-Dawley rats. The settings on record: for Glucose: plasma; for rate of glucose infusion / glucose requirements: near basal circulating insulin levels.
Text: (§4) Animal preparation for the in vivo experiments. Rats. Eighty-nine 10-week-old male Sprague-Dawley rats (Charles River Breeding Laboratories, Wilmington, Mass.) were studied. Rats were housed in individual cages and subjected to a standard light-dark cycle. Three weeks prior to the in vivo studies, chronic catheters were implanted in the third cerebral ventricle (Obici et al., 2003; Liu et al., 1998) or intrahypothalamically (Morton et al., 2003) (IH) by stereotaxic surgery.
(§5) In vivo studies. For the studies in rats, the metabolic experiments were performed ˜3 weeks after stereotaxic surgery following complete recovery from the operation (FIG. 5). All solutions were diluted with artificial cerebral spinal fluid (aCSF). […] Euglycemic-hyperinsulinemic clamps in conscious, unrestrained, catheterized mice were performed for 90 min as previously described (Obici et al., 2003; Liu et al., 1998).
as §3

Assay [7] deals with hepatic glucose production. Description: Pancreatic-hyperinsulinemic clamp (systemic insulin 3 mU/kg.min) in SHAM and HV rats. Type of assay: in vivo, Sprague-Dawley rats. The settings on record: systemic hyperinsulinemia ~3-fold over basal. The protocol: Panel A is a schematic representation of the pancreatic-hyperinsulinemic clamp procedure. At t=120 an infusion of labeled glucose was initiated and maintained for the remaining 4 hours of the study and a pancreatic hyperinsulinemic clamp was initiated at t=240 min and lasted for 2 hours.
as §2
(§6) Selective hepatic branch vagotomy. One week before the clamp procedure a subgroup of rats underwent selective hepatic vagotomy (HV) or sham operation (SHAM). Anatomical nerve transactions was verified in each rat at sacrifice by microscopic observation of the absence of vagal nerve fibers in between the two silk sutures that had been placed along the trunk at the time of transection (la Fleur et al., 2003).

Assay [8] addresses T1, hypothalamic insulin receptors (Rattus norvegicus, UniProt P15127).
T1 construct: Paired groups of SHAM and HV rats received an ICV infusion of either insulin or vehicle; from tissue; host or cells: brain/hypothalamus of living Sprague-Dawley rats (sham, hepatic vagotomy or vagal deafferentation)
Description: ICV insulin with pancreatic-insulin clamp in rats with hepatic vagotomy (HV), sham operation or vagal deafferentation. Type of assay: in vivo, Sprague-Dawley rats. The settings on record: for Body wt.: ICV infusion; for 14C-PEP: liver.
Text: as §4, §5, §6
Selective vagal deafferentation. Nerve transection was performed as previously described, according to the methods of Norgren and Smith (Norgren & Smith, 1998).
as §3

Where [9] appears, read: ICV infusion, liver harvested at completion of infusions.
Where [10] appears, read: Basal, before the clamp, ICV infusion.

T1 sequence (P15127 27-759 limits assumed): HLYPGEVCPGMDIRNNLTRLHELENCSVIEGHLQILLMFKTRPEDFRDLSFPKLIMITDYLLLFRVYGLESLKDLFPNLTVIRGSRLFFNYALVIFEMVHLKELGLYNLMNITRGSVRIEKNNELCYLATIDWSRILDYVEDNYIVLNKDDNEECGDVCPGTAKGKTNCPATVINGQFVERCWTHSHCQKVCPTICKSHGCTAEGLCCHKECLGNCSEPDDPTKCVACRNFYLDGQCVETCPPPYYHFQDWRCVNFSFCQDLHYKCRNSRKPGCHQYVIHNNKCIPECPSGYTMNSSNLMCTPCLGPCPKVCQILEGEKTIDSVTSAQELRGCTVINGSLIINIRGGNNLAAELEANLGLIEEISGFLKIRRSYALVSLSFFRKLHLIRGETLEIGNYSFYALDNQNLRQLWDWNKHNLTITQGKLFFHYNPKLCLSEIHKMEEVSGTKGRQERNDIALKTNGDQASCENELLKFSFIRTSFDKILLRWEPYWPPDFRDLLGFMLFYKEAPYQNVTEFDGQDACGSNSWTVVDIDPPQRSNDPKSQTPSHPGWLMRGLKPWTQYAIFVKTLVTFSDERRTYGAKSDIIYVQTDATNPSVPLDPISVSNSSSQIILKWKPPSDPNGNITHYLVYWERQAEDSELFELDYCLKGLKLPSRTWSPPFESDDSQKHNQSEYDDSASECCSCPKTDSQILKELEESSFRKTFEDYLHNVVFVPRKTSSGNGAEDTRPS
T1 sequence (P15127 764-1383 partner limits assumed): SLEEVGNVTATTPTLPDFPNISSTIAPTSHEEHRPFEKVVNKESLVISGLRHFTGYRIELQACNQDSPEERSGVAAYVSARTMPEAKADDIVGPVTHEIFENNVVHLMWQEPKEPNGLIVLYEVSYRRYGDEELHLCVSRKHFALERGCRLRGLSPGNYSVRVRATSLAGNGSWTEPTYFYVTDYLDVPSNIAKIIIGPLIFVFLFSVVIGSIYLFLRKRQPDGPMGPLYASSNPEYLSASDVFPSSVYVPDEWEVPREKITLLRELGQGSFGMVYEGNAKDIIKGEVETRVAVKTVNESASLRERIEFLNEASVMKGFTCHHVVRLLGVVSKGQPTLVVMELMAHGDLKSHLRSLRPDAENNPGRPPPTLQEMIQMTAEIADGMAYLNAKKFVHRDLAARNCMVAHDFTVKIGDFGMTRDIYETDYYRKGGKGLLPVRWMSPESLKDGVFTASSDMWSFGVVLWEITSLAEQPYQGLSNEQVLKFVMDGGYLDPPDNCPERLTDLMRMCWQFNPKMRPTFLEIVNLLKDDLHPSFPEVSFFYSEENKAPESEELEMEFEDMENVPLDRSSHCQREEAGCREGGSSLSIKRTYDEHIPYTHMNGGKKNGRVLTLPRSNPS

`CC1=NS(=O)(=O)c2cc(Cl)ccc2N1` [diazoxide]: the “inhibition of glucose production” value in assay [1] (ICV or intrahypothalamic infusion) is given as about 45%. Also, in assay [2], the “rate of glucose infusion required to prevent hypoglycemia” value was “significant increases”, the blood glucose levels entry is given as “lowered blood glucose levels” and the “glucose production (GP)” value is “marked suppression of GP”. In addition, the “liver G6 Pase mRNA levels” value in assay [3] (setting [9]) is listed as “markedly decreased”. The Glucose in assay [4] (Basal, before the clamp, plasma, ICV infusion) is recorded as 7.9 ± 0.4 mM. In addition, in assay [4] (ICV), the gluconeogenesis entry is given as “marked inhibition of gluconeogenesis”, the glucose cycling result is “significantly reduced glucose cycling” and the rate of glycogenolysis entry was “not significantly decreased”. Further, the blood glucose levels entry in assay [4] (ICV (third cerebral ventricle), conscious rats) was “lowered blood glucose levels”. Moreover, the “glucose infusion required to prevent hypoglycemia” value in assay [4] (ICV, basal circulating insulin levels) is reported as “glucose infusion was required to prevent hypoglycemia”. Besides, in assay [4] (ICV, basal insulin levels (~20 μU/ml)), the “decrease in glucose production (GP)” value is on record as 45±4%. Also, the “flux through G6 Pase” value in assay [4] (ICV, in vivo) is “decreased the flux through G6 Pase”. For the same compound, the “rate of glucose uptake” value in assay [4] (ICV, pancreatic-insulin clamp) was “not significantly affected”. Moreover, in assay [4] (indirect pathway (gluconeogenesis), ICV infusion, Table 6), the “% Indirect” value is recorded as 9.7 ± 4.1 %. The “liver PEPCK mRNA levels” value in assay [5] (setting [9]) was “markedly decreased”.

Take `COc1ccc(Cl)cc1C(=O)NCCc1ccc(S(=O)(=O)NC(=O)NC2CCCCC2)cc1` [glibenclamide, 5-Chloro-N-[2-[4-(3-cyclohexylureidosulfonyl)phenyl]ethyl]-2-methoxybenzamide, reference compound]: the Glucose in assay [6] (setting [10]) is on record as 8.2 ± 0.5 mM; in assay [6] (Clamp steady state, ICV infusion) it was 8.2 ± 0.9 mM. The “rate of glucose infusion / glucose requirements” value in assay [6] (ICV) is “did not modify the rate of glucose infusion”. The “glucose production (GP)” value in assay [6] (ICV, pancreatic clamp) was “did not per se affect GP”. Besides, the “% Indirect” value in assay [6] (indirect pathway (gluconeogenesis), ICV infusion, Table 7) is listed as 32.4 ± 3.0%.

For the compound insulin, in assay [1] (central administration), the “inhibition of glucose production” value is reported as “failed to significantly inhibit glucose production”. The “suppression of GP” value in assay [7] (HV) worked out at 38±11%; in assay [7] (SHAM), 80±8%. For the same compound, the “rate of glucose infusion required to prevent hypoglycemia” value in assay [2] is “significant increases”. Moreover, the blood glucose levels entry in assay [2] is reported as “reproduced the potent effects of ICV insulin or diazoxide”; in assay [6] (ICV (third cerebral ventricle)), “lowers blood glucose levels”. In addition, in assay [2], the “glucose production (GP)” value is recorded as “reproduced the potent effects of ICV insulin or diazoxide”. The “liver G6 Pase mRNA levels” value in assay [3] (setting [9]) is recorded as “marked KATP channels dependent decreases”; in assay [3] (SHAM, ICV), “marked decrease”. Also, the “liver PEPCK mRNA levels” value in assay [5] (setting [9]) was “marked KATP channels dependent decreases”; in assay [5] (SHAM, ICV), “marked decrease”. Moreover, the Glucose in assay [6] (setting [10]) worked out at 7.8 ± 0.3 mM; in assay [8] (HV, Basal, plasma), 7.9 ± 0.5 mM; in assay [8] (HV, Clamp steady state, plasma), 8.0 ± 0.6 mM; in assay [8] (Sham, Basal, plasma), 7.9 ± 0.3 mM. The “flux through G6 Pase” value is on record as “markedly decreased the flux through G6 Pase” in assay [6] (ICV) and “markedly decreased the flux through G6 Pase” in assay [8] (SHAM, ICV). Moreover, the gluconeogenesis result in assay [6] (ICV) is on record as “marked inhibition of gluconeogenesis”; in assay [8] (SHAM, ICV), “marked inhibition of gluconeogenesis”. Besides, the rate of glycogenolysis result in assay [6] (ICV) is “not significantly decreased”. Moreover, the “decrease in glucose production (GP)” value was 52±8% in assay [6] (ICV, basal and equal insulin levels); “not in HV rats” in assay [8] (HV, ICV, basal and equal insulin levels). The “rate of glucose infusion / glucose requirements” value in assay [6] (ICV) is reported as “glucose infusion was required to prevent hypoglycemia”. Also, the Body wt. amounted to 295 ± 4 g in assay [8] (HV, Basal) and 310 ± 5 g in assay [8] (Sham, Basal). Moreover, the FFA in assay [8] (HV, Basal, plasma) turned out to be 0.5 ± 0.2 mM; in assay [8] (HV, Clamp steady state, plasma) it was 0.5 ± 0.3 mM; in assay [8] (Sham, Basal, plasma), 0.5 ± 0.3 mM; in assay [8] (Sham, Clamp steady state, plasma) it was 0.4 ± 0.1 mM. The same compound displayed an Insulin in assay [8] (HV, Clamp steady state, plasma) of 0.9 ± 0.3 ng/mL. In addition, the hepatic glucose fluxes entry in assay [8] (HV, ICV) is on record as “failed to affect hepatic glucose fluxes”. The “3H-Glucose Plasma SA” value is given as 52.4 ± 3.5 dpm/nmol in assay [8] (HV, Table 8) and 43.1 ± 1.9 dpm/nmol in assay [8] (SHAM, Table 8). The “% Indirect” value in assay [8] (HV, indirect pathway (gluconeogenesis), Table 8) is on record as 34.4 ± 9.7%. Further, the 14C-PEP in assay [8] (HV, Table 8) is given as 5.5 ± 1.4 dpm/nmol; in assay [8] (SHAM, Table 8) it was 10.9 ± 0.6 dpm/nmol. Besides, the “rate of glucose uptake” value in assay [8] (ICV, either SHAM or HV rats) is given as “not significantly affected”. Moreover, the “glucose infusion required to prevent hypoglycemia” value in assay [8] (SHAM, ICV, ~basal circulating insulin) is listed as “glucose infusion was required to prevent hypoglycemia”. Besides, the “3H-UDP-glucose Liver SA” value in assay [8] (SHAM, Table 8) is reported as 5.5 ± 0.5 dpm/nmol. Also, the “Direct (%)” value in assay [8] (SHAM, direct pathway, Table 8) amounted to 12.1 ± 0.71%. Besides, the “ability to lower blood glucose levels and to suppress GP” value in assay [8] (rats with selective vagal deafferentation, ICV) is listed as “did not alter”.
